Measurements as given in patent US7906709B2, “Methods for breeding glyphosate resistant plants and compositions thereof” (priority 2006, dated 2011).

Columns and labels:
[1] = system: R line of rigid ryegrass; assay: Dose response study of plant injury, R line; assay type: in vivo, Lolium rigidum
Protocol: A dose response study is conducted on the R and S lines of rigid ryegrass. The rates of glyphosate applied varied from 0.125×, 0.25×, 0.5×, 1×, 2×, 4×, 6×, 8×, 10×, to 12×. The sprayed solutions and application procedures are similar to those described previously. Plants are evaluated for visual injury at 4 WAT. Data (4 WAT) from two experiments with 8 replications of each treatment are analyzed by non-linear regression and fitted to a log-logistic model:
[formula] where y is predictive of plant injury (% of control), X50=dose required to obtain 50% injury and b is the slope at X50.

[2] = system: Wild-type Agrobacterium; assay: Growth in M-9 media with glyphosate, wild-type; assay type: cell-based, Agrobacterium tumefaciens; details: 48 hours
Protocol: The confirmed plasmid is transformed into Agrobacterium tumefaciens by “freeze thaw technique” using liquid nitrogen. The transformed Agrobacterium is grown in LB plated and maintained 28° C. for 72 h. Some colonies are grown in LB broth for 24 h and tested for the inserted EPSPS gene by PCR. The confirmed Agrobacterium is grown in 50 mL LB broth for 24 h. The Agrobacterium is centrifuged at 5000×g for 10 min, and the pellets are diluted with 2 mL 1.0 M CaCl2. At the same time, a wild-type Agrobacterium is also grown and extracted similar to the transformed Agrobacterium. The Agrobacterium solutions (10 μL) are grown in 50 mL media containing 1×M-9 salt media (SIGMA), 20 mM glucose, 2 mM MgSO4, and glyphosate at 0, 0.25, 0.5, 0.75, 1.0, 1.5, and 2 mM.
The growth (indicated by Optical Density 600 nm) is measured after 48 hours.

[3] = system: resistant (R) clone from F2bc1 hybrid; assay: Glyphosate sensitivity of resistant clone from F2bc1; assay type: in vivo, Lolium perenne x Lolium rigidum
Protocol: The resistant plant from F2 population is backcrossed to the S parent (perennial ryegrass). Procedures for vernalization and pollination are similar to what is described above. Plants of the F1 hybrid from the backcross (F1bc1) are allowed to intercross to generate F2 (F2bc1). The inheritance of glyphosate resistance traits is evaluated in the F2bc1 population. Glyphosate sensitivity is evaluated at 0.25× and 8× glyphosate. Data collection and genetic evaluation are similar to the procedures as described above.
Backcrossing between the resistant plants from F2 to the sensitive parent of perennial ryegrass is designed to re-capture agronomic characteristics of sensitive parents (perennial ryegrass). The level of glyphosate resistance in the F1bc1 population appears to be similar to the previous results in F1 population. Distribution of glyphosate sensitivity level in the F2bc1 population is illustrated in FIG. 5. A sample of the resistant plants from the F2bc1 is evaluated for the level of sensitivity at 0, 1, 2, 4, 6, 8, 10, 12, and 14× glyphosate and data is illustrated in FIG. 6. No injury is observed up to 6× glyphosate, slight injury is observed at 8× and 10×, and severe injury is observed at 12× glyphosate.

[4] = system: R biotype of the California rigid ryegrass; assay: Glyphosate drops on leaves, resistant biotype; assay type: in vivo, Lolium rigidum; details: three 2 µl drops on two leaves, corresponds to 1.12 kg ai ha^-1; one week after treatment; ROUNDUP ULTRA (isopropylamine salt)
Protocol: Rigid ryegrass (Lolium rigidum Gaud.) plants are collected from an almond orchard intensively treated with glyphosate since 1984. The collected plants are grown and seed produced in greenhouse. The resistant, intermediate and susceptible biotypes are selected in the first generation using 1.12, 2.24, and 3.36 kg ai ha^−1 rates of glyphosate. Further selection is continued with a high glyphosate rate (8.96 kg ai ha^−1) to select for the resistant and with the low rate (0.28 kg ai ha^−1) to select for the susceptible individuals. The resistant (R) and susceptible (S) biotypes used in this example are generated from the 5th and 4th cycle, respectively.
R and S biotypes of the California rigid ryegrass are grown individually to the fully vegetatively mature stage prior to seedhead formation. In one experiment, two fully mature leaves of each plant (one R and one S biotypes) are treated with three 2 μl drops of glyphosate (glyphosate isopropylamine salt, ROUNDUP ULTRA™, Monsanto Co., St. Louis, Mo.) solution applied to the upper leaf surface. This corresponds to a field rate of 1.12 kg ai ha^−1 glyphosate at a volume of 187 L ha^−1 and pressure of 172.5 kPa. One week after treatment, the S biotype is dead, but no injury is observed on the R biotype.

O=C(O)CNCP(=O)(O)O [glyphosate, N-(phosphonomethyl) glycine]
survival ([1]; R biotype, 8× glyphosate): survived
ratio of glyphosate rates between the R and S lines for 50% injury ([1]; R line versus S line, 4 WAT): > 100 fold
glyphosate rate for 50% injury ([1]; R line, visual injury 4 WAT, 1× = 1.12 kg ai ha^-1): 11 ×
Growth, OD 600 nm ([2]; glyphosate 0.25 mM): 0.236
Growth, Percent ([2]; glyphosate 0.25 mM): 37%
Growth, OD 600 nm ([2]; glyphosate 0.50 mM): 0.005
Growth, Percent ([2]; glyphosate 0.50 mM): 0.8%
Growth, OD 600 nm ([2]; glyphosate 0.75 mM): 0.005
Growth, Percent ([2]; glyphosate 0.75 mM): 0.8%
Growth, OD 600 nm ([2]; glyphosate 1.00 mM): 0.004
Growth, Percent ([2]; glyphosate 1.00 mM): 0.8%
Growth, OD 600 nm ([2]; glyphosate 1.50 mM): 0.004
Growth, Percent ([2]; glyphosate 1.50 mM): 0.8%
Growth, OD 600 nm ([2]; glyphosate 2.00 mM): 0.004
Growth, Percent ([2]; glyphosate 2.00 mM): 0.8%
injury ([3]; 8× and 10× glyphosate): slight injury
injury ([3]; 12× glyphosate): severe injury
injury ([3]; up to 6× glyphosate): No injury
Plant injury [4]: no injury
